Source: the NIST ThermoML archive (doi:10.1021/je700260f)
± gives the expanded uncertainty stated by the source.

Conditions: Liquid, Vibrating tube method

FC(C(F)(F)F)C(F)(F)F [1,1,1,2,3,3,3-heptafluoropropane]
Conditions	mass density [kg/m3]
333.15 K, 33156 kPa	1451.3 ± 1.7
333.15 K, 33196 kPa	1451.6 ± 1.7
333.15 K, 33224 kPa	1451.7 ± 1.7
333.15 K, 33268 kPa	1451.7 ± 1.7
333.15 K, 33317 kPa	1451.9 ± 1.7
333.15 K, 33346 kPa	1452 ± 1.7
333.15 K, 33391 kPa	1452.2 ± 1.7
333.15 K, 33421 kPa	1452.4 ± 1.7
333.15 K, 33465 kPa	1452.5 ± 1.7
333.15 K, 33498 kPa	1452.4 ± 1.7
333.15 K, 33532 kPa	1452.7 ± 1.7
333.15 K, 33566 kPa	1452.8 ± 1.7
333.15 K, 33615 kPa	1453 ± 1.7
333.15 K, 33639 kPa	1453.3 ± 1.7
333.15 K, 33683 kPa	1453.3 ± 1.7
333.15 K, 33713 kPa	1453.3 ± 1.7
333.15 K, 33753 kPa	1453.7 ± 1.7
333.15 K, 34447 kPa	1456.1 ± 1.7
333.15 K, 34493 kPa	1456.2 ± 1.7
333.15 K, 34519 kPa	1456.4 ± 1.7
333.15 K, 34541 kPa	1456.4 ± 1.7
333.15 K, 34553 kPa	1456.4 ± 1.7
333.15 K, 34564 kPa	1456.6 ± 1.7
333.15 K, 34570 kPa	1456.7 ± 1.7
333.16 K, 8979 kPa	1316.3 ± 1.5
333.16 K, 9012 kPa	1316.5 ± 1.5
333.16 K, 9767 kPa	1323.1 ± 1.5
333.16 K, 9793 kPa	1323.2 ± 1.5
333.16 K, 9821 kPa	1323.4 ± 1.5
333.16 K, 9857 kPa	1323.7 ± 1.5
333.16 K, 9885 kPa	1324 ± 1.5
333.16 K, 9911 kPa	1324.3 ± 1.5
333.16 K, 9936 kPa	1324.5 ± 1.5
333.16 K, 9961 kPa	1324.7 ± 1.5
333.16 K, 9986 kPa	1324.9 ± 1.5
333.16 K, 10016 kPa	1325.2 ± 1.5
333.16 K, 10042 kPa	1325.3 ± 1.5
333.16 K, 10070 kPa	1325.4 ± 1.5
333.16 K, 10094 kPa	1325.8 ± 1.5
333.16 K, 10119 kPa	1326.1 ± 1.5
333.16 K, 10148 kPa	1326.3 ± 1.5
333.16 K, 10178 kPa	1326.6 ± 1.5
333.16 K, 10203 kPa	1326.6 ± 1.5
333.16 K, 10236 kPa	1326.9 ± 1.5
333.16 K, 10265 kPa	1327.2 ± 1.5
333.16 K, 10287 kPa	1327.4 ± 1.5
333.16 K, 10312 kPa	1327.6 ± 1.5
333.16 K, 10338 kPa	1327.9 ± 1.5
333.16 K, 10367 kPa	1328.1 ± 1.5
333.16 K, 10397 kPa	1328.3 ± 1.5
333.16 K, 10430 kPa	1328.5 ± 1.5
333.16 K, 10457 kPa	1328.7 ± 1.5
333.16 K, 10483 kPa	1329 ± 1.5
333.16 K, 10515 kPa	1329.4 ± 1.5
333.16 K, 10537 kPa	1329.3 ± 1.5
333.16 K, 10570 kPa	1329.8 ± 1.5
333.16 K, 10596 kPa	1329.9 ± 1.5
333.16 K, 10624 kPa	1330.1 ± 1.5
333.16 K, 10654 kPa	1330.5 ± 1.5
333.16 K, 10839 kPa	1331.8 ± 1.5
333.16 K, 10866 kPa	1332.1 ± 1.5
333.16 K, 10896 kPa	1332.3 ± 1.5
333.16 K, 10918 kPa	1332.5 ± 1.5
333.16 K, 10947 kPa	1332.7 ± 1.5
333.16 K, 10979 kPa	1332.9 ± 1.5
333.16 K, 11112 kPa	1334 ± 1.5
333.16 K, 11141 kPa	1334.3 ± 1.5
333.16 K, 11160 kPa	1334.5 ± 1.5
333.16 K, 11186 kPa	1334.6 ± 1.5
333.16 K, 11212 kPa	1334.9 ± 1.5
333.16 K, 11245 kPa	1335.1 ± 1.5
333.16 K, 11275 kPa	1335.4 ± 1.5
333.16 K, 11298 kPa	1335.5 ± 1.5
333.16 K, 11320 kPa	1335.7 ± 1.5
333.16 K, 11353 kPa	1336 ± 1.5
333.16 K, 11388 kPa	1336.3 ± 1.5
333.16 K, 11415 kPa	1336.6 ± 1.5
333.16 K, 11450 kPa	1336.7 ± 1.5
333.16 K, 11481 kPa	1337 ± 1.5
333.16 K, 11534 kPa	1337.4 ± 1.5
333.16 K, 11792 kPa	1339.3 ± 1.5
333.16 K, 11824 kPa	1339.6 ± 1.5
333.16 K, 11847 kPa	1339.8 ± 1.5
333.16 K, 11870 kPa	1339.9 ± 1.5
333.16 K, 11897 kPa	1340.1 ± 1.5
333.16 K, 11937 kPa	1340.4 ± 1.5
333.16 K, 11965 kPa	1340.6 ± 1.5
333.16 K, 11989 kPa	1340.8 ± 1.5
333.16 K, 12024 kPa	1341.1 ± 1.5
333.16 K, 12062 kPa	1341.3 ± 1.5
333.16 K, 12090 kPa	1341.4 ± 1.5
333.16 K, 12120 kPa	1341.8 ± 1.5
333.16 K, 12147 kPa	1342 ± 1.5
333.16 K, 12167 kPa	1342.2 ± 1.5
333.16 K, 12202 kPa	1342.3 ± 1.5
333.16 K, 12226 kPa	1342.6 ± 1.5
333.16 K, 12261 kPa	1342.8 ± 1.5
333.16 K, 12289 kPa	1343 ± 1.5
333.16 K, 12321 kPa	1343.4 ± 1.5
333.16 K, 12345 kPa	1343.5 ± 1.5
333.16 K, 12385 kPa	1343.8 ± 1.5
333.16 K, 12416 kPa	1344 ± 1.5
333.16 K, 12443 kPa	1344.2 ± 1.5
333.16 K, 12466 kPa	1344.3 ± 1.5
333.16 K, 12886 kPa	1347.5 ± 1.5
333.16 K, 12914 kPa	1347.5 ± 1.5
333.16 K, 12942 kPa	1347.8 ± 1.5
333.16 K, 12966 kPa	1347.9 ± 1.5
333.16 K, 12994 kPa	1348.2 ± 1.5
333.16 K, 13023 kPa	1348.2 ± 1.5
333.16 K, 13053 kPa	1348.6 ± 1.5
333.16 K, 13082 kPa	1348.9 ± 1.5
333.16 K, 13115 kPa	1349.1 ± 1.5
333.16 K, 13140 kPa	1349.1 ± 1.5
333.16 K, 13164 kPa	1349.4 ± 1.5
333.16 K, 13196 kPa	1349.7 ± 1.5
333.16 K, 13220 kPa	1349.7 ± 1.5
333.16 K, 13244 kPa	1349.9 ± 1.5
333.16 K, 13272 kPa	1350.2 ± 1.5
333.16 K, 13304 kPa	1350.5 ± 1.5
333.16 K, 13324 kPa	1350.5 ± 1.5
333.16 K, 13344 kPa	1350.6 ± 1.5
333.16 K, 13368 kPa	1350.9 ± 1.5
333.16 K, 13394 kPa	1351.1 ± 1.5
333.16 K, 13432 kPa	1351.2 ± 1.5
333.16 K, 13461 kPa	1351.4 ± 1.5
333.16 K, 13494 kPa	1351.7 ± 1.5
333.16 K, 13518 kPa	1351.9 ± 1.5
333.16 K, 13633 kPa	1352.7 ± 1.5
333.16 K, 13666 kPa	1352.9 ± 1.5
333.16 K, 13690 kPa	1353 ± 1.5
333.16 K, 13724 kPa	1353.1 ± 1.5
333.16 K, 13921 kPa	1354.7 ± 1.5
333.16 K, 13954 kPa	1354.9 ± 1.5
333.16 K, 13991 kPa	1355.1 ± 1.5
333.16 K, 14017 kPa	1355.3 ± 1.5
333.16 K, 14050 kPa	1355.5 ± 1.5
333.16 K, 14075 kPa	1355.8 ± 1.5
333.16 K, 14106 kPa	1355.9 ± 1.5
333.16 K, 14140 kPa	1356.2 ± 1.5
333.16 K, 14828 kPa	1360.7 ± 1.5
333.16 K, 14853 kPa	1360.9 ± 1.5
333.16 K, 14892 kPa	1361.2 ± 1.5
333.16 K, 14922 kPa	1361.4 ± 1.5
333.16 K, 14953 kPa	1361.5 ± 1.5
333.16 K, 14979 kPa	1361.7 ± 1.5
333.16 K, 15001 kPa	1361.9 ± 1.5
333.16 K, 15034 kPa	1362.1 ± 1.5
333.16 K, 15054 kPa	1362.3 ± 1.5
333.16 K, 15081 kPa	1362.5 ± 1.5
333.16 K, 15117 kPa	1362.6 ± 1.5
333.16 K, 15153 kPa	1362.8 ± 1.5
333.16 K, 15179 kPa	1363 ± 1.5
333.16 K, 15260 kPa	1363.6 ± 1.5
333.16 K, 15320 kPa	1364 ± 1.5
333.16 K, 15346 kPa	1364.2 ± 1.5
333.16 K, 15370 kPa	1364.4 ± 1.5
333.16 K, 15404 kPa	1364.4 ± 1.5
333.16 K, 15436 kPa	1364.7 ± 1.5
333.16 K, 15464 kPa	1364.9 ± 1.5
333.16 K, 15500 kPa	1365.2 ± 1.5
333.16 K, 15533 kPa	1365.2 ± 1.5
333.16 K, 15561 kPa	1365.5 ± 1.5
333.16 K, 15593 kPa	1365.8 ± 1.5
333.16 K, 15630 kPa	1366 ± 1.5
333.16 K, 15658 kPa	1366.2 ± 1.5
333.16 K, 15689 kPa	1366.4 ± 1.5
333.16 K, 15953 kPa	1368 ± 1.5
333.16 K, 15985 kPa	1368.1 ± 1.5
333.16 K, 16013 kPa	1368.3 ± 1.5
333.16 K, 16049 kPa	1368.5 ± 1.6
333.16 K, 16085 kPa	1368.9 ± 1.6
333.16 K, 16105 kPa	1369.1 ± 1.6
333.16 K, 16141 kPa	1369.2 ± 1.6
333.16 K, 16169 kPa	1369.4 ± 1.6
333.16 K, 16193 kPa	1369.6 ± 1.6
333.16 K, 16223 kPa	1369.6 ± 1.6
333.16 K, 16248 kPa	1370 ± 1.6
333.16 K, 16281 kPa	1370.1 ± 1.6
333.16 K, 16314 kPa	1370.3 ± 1.6
333.16 K, 16339 kPa	1370.4 ± 1.6
333.16 K, 16363 kPa	1370.5 ± 1.6
333.16 K, 16388 kPa	1370.7 ± 1.6
333.16 K, 16416 kPa	1370.9 ± 1.6
333.16 K, 16540 kPa	1371.7 ± 1.6
333.16 K, 16572 kPa	1371.9 ± 1.6
333.16 K, 16600 kPa	1372 ± 1.6
333.16 K, 16655 kPa	1372.4 ± 1.6
333.16 K, 16788 kPa	1373.2 ± 1.6
333.16 K, 16821 kPa	1373.3 ± 1.6
333.16 K, 16850 kPa	1373.5 ± 1.6
333.16 K, 16876 kPa	1373.7 ± 1.6
333.16 K, 16909 kPa	1373.8 ± 1.6
333.16 K, 16937 kPa	1374.2 ± 1.6
333.16 K, 16964 kPa	1374.2 ± 1.6
333.16 K, 16992 kPa	1374.4 ± 1.6
333.16 K, 17013 kPa	1374.5 ± 1.6
333.16 K, 17038 kPa	1374.7 ± 1.6
333.16 K, 17063 kPa	1374.9 ± 1.6
333.16 K, 17088 kPa	1374.9 ± 1.6
333.16 K, 17109 kPa	1375.2 ± 1.6
333.16 K, 17137 kPa	1375.3 ± 1.6
333.16 K, 17162 kPa	1375.4 ± 1.6
333.16 K, 17189 kPa	1375.7 ± 1.6
333.16 K, 17215 kPa	1375.7 ± 1.6
